The target in assay [1] is T1, Alpha2A receptor (Homo sapiens, UniProt P08913).
T1 sequence (P08913 1-465): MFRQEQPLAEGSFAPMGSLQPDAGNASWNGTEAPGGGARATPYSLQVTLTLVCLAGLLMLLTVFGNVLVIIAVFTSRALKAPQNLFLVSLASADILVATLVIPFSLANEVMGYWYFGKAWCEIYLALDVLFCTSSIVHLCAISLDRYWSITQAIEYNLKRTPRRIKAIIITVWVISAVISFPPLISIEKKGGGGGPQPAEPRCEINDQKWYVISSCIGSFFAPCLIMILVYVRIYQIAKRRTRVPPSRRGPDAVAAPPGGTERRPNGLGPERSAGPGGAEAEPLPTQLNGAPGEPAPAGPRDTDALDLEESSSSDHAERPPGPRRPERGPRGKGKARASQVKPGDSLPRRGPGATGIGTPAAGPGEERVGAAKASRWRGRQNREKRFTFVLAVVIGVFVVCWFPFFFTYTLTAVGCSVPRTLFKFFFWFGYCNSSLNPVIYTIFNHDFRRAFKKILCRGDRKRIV
In words: FLIPR Ca^2+ flux agonist assay at Alpha2A. The class given is cell-based. Here is the method: (§1) Functional Assays at Adrenergic and Dopamine Receptors. Agonist activity at Alpha1A, Alpha2A, D1, and D2 receptors was determined using a FLIPR Ca^2+ flux assay at WuXi AppTec (Hong Kong) Limited according to their standard protocols. Briefly, stably transfected cells expressing the receptor of interest were grown and plated in a 384 well plate and incubated at 37° C. and 5% CO2 overnight. A solution of 250 mM probenecid in 1 mL FLIPR assay buffer was prepared fresh. This was combined with a fluorescent dye (Fluo-4 Direct™) to make a final assay concentration of 2.5 mM. […] The fluorescent dye was then added to the assay plate along with assay buffer to a final volume of 40 μL. The cell plate was incubated for 50 min at 37° C. and 5% CO2 and placed into the FLIPR Tetra along with the compound plate. 10 μL of references and compounds were then transferred from the compound plate into the cell plate and the fluorescent signal was read.

Assay [2] concerns the target T2, human 5-HT2C receptor (Homo sapiens, UniProt P28335).
T2 sequence (P28335 33-458): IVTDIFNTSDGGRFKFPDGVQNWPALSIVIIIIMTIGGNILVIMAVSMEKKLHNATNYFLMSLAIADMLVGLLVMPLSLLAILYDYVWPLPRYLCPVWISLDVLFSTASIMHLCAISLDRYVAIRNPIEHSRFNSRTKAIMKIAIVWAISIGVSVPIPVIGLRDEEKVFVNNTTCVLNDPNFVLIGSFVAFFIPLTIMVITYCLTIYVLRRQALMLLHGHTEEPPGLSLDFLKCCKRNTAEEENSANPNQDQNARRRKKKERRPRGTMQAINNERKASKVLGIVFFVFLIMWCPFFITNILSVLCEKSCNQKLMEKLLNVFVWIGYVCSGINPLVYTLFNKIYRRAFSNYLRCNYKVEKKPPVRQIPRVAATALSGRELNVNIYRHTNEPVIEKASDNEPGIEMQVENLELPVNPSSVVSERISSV
In words: cell-based. The conditions noted are these: Ca^2+ flux, agonist.

In assay [3] the target is T3, 5-HT2A receptor (Homo sapiens, UniProt P28223).
T3 construct: host or cells: HEK293
T3 sequence (P28223 whole entry): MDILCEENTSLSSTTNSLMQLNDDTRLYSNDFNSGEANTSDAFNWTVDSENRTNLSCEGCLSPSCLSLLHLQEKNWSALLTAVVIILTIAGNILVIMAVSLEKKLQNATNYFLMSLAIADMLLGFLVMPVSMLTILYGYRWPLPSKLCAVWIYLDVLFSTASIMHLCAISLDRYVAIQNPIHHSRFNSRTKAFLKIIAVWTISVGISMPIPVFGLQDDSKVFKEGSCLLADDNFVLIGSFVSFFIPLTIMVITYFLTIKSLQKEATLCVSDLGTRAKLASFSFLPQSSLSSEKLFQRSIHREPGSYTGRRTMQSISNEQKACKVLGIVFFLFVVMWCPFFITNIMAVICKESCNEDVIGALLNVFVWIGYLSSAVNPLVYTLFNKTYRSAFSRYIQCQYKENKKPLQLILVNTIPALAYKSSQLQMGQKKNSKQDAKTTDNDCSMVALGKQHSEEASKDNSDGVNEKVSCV
The experiment in a line: cell-based. The conditions noted are these: for EC50: Ca^2+ flux, agonist, read-out: 5-HT2A EC50. The class given is cell-based.

The target in assay [4] is D2 receptor (Homo sapiens, UniProt P14416). In words: FLIPR Ca^2+ flux agonist assay at D2. The class given is cell-based. The method, then: as §1
Sequence of D2 receptor (P14416 whole entry): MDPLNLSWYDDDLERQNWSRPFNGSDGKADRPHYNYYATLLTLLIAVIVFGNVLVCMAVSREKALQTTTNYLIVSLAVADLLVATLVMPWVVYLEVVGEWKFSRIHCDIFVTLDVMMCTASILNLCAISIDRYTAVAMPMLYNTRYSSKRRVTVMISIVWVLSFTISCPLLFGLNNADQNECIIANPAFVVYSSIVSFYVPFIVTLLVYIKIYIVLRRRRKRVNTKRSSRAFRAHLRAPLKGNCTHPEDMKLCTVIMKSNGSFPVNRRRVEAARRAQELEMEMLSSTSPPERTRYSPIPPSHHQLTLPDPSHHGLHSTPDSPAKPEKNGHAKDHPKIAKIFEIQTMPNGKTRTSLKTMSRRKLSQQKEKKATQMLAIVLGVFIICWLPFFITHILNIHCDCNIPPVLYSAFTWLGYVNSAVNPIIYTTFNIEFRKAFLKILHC
In assay [5] the target is 5-HT1B receptor (Homo sapiens, UniProt P28222). In words: cAMP accumulation agonist assay at 5-HT1B. The class given is cell-based. The conditions noted are these: cAMP, agonist; for EC50: read-out: 5-HT1B EC50. The gist of the method: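 Agonism was measured by cAMP accumulation in stably transfected cells incubated 60 min at RT. A detection reagent was then added for 60 min at RT before reading, with an 800 nM cAMP standard in blank wells.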
Sequence of 5-HT1B receptor (P28222 whole entry): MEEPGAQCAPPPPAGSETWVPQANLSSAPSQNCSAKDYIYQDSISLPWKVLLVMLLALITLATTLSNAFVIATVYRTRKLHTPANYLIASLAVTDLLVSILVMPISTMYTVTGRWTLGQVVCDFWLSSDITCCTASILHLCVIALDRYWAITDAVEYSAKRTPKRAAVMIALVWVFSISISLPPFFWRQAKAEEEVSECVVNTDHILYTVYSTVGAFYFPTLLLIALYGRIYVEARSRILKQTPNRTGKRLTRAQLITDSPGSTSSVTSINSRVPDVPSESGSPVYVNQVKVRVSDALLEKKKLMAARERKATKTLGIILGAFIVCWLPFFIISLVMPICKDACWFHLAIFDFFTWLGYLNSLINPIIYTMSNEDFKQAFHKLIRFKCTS
In general terms: Cyclic AMP is a second messenger, typically raised through Gs and lowered through Gi signalling.

Where [6] appears, read: Ca^2+ flux, agonist, read-out: Alpha 2A EC50.
Setting [7] is: Ca^2+ flux, agonist, read-out: D2 EC50.

Where two headings read alike, the source gives them in different places.

The text below walks through data of patent US20230116703A1, “NOVEL ERGOLINES AND METHODS OF TREATING MOOD DISORDERS” (priority 2021, published 2023).

A word on the EC50: it is the concentration giving half of the maximal effect. `CCCN1C[C@H](C(=O)N(CC)CC)C=C2c3cccc4[nH]cc(c34)C[C@H]21` [Compound 1, (6aR,9R)—N,N-diethyl-7-propyl-4,6,6a,7,8,9-hexahydroindolo[4,3-fg]quinoline-9-carboxamide]: the EC50 in assay [1] worked out at 42.2 nM; in assay [2] it was 11.9 nM; in assay [3] it was 18.5 nM; in assay [4], 2.17 nM; in assay [5], 3.82 nM.
For `CCN(CC)C(=O)[C@@H]1C=C2c3cccc4[nH]cc(c34)C[C@H]2N(CCCF)C1` [Compound 2, (6aR,9R)—N,N-diethyl-7-(3-fluoropropyl)-4,6,6a,7,8,9-hexahydroindolo[4,3-fg]quinoline-9-carboxamide], in that order: 1000 nM, 4.35 nM, 11.1 nM, 27.7 nM and 193 nM.
For `CCCN1C[C@H](C(=O)N[C@H](C)CC)C=C2c3cccc4[nH]cc(c34)C[C@H]21` [Compound 3, (6aR,9R)—N—((R)-sec-butyl)-7-propyl-4,6,6a,7,8,9-hexahydroindolo[4,3-fg]quinoline-9-carboxamide], the concentration giving a half-maximal response (EC50) in assay [1] amounted to 3640 nM; in assay [2], 0.822 nM; in assay [3], 1.57 nM; in assay [4], 27.2 nM; in assay [5] it was 68.8 nM. For the same compound, in assay [3] (Ca^2+ flux functional assays), the “selectivity for the 5-HT2A receptor over the tested adrenergic and dopamine receptors (in words)” value is “exceptional selectivity”.
Take `CCCN1C[C@H](C(=O)N2[C@@H](C)C[C@@H]2C)C=C2c3cccc4[nH]cc(c34)C[C@H]21` [Compound 4, ((2S,4S)-2,4-dimethylazetidin-1-yl)((6aR,9R)-7-propyl-4,6,6a,7,8,9-hexahydroindolo[4,3-fg]quinolin-9-yl)methanone]: the EC50 was found to be 1080 nM in assay [1]; 5.6 nM in assay [2]; 21.3 nM in assay [3]; 21 nM in assay [4]; 97.6 nM in assay [5]. Moreover, in assay [5], the “5-HT1B % Act @ Max Dose” value is listed as 96%.
As to `CCCN1C[C@H](C(=O)NC(CC)CC)C=C2c3cccc4[nH]cc(c34)C[C@H]21` [Compound 6, (6aR,9R)—N-(pentan-3-yl)-7-propyl-4,6,6a,7,8,9-hexahydroindolo[4,3-fg]quinoline-9-carboxamide], the EC50 in assay [2] came out at 6.18 nM; in assay [3], 11.3 nM; in assay [4], 7.01 nM; in assay [5], 201 nM.
On to `CCN(CC)C(=O)[C@@H]1C=C2c3cccc4[nH]cc(c34)C[C@H]2N(Cc2ccccc2OC)C1` [Compound 10, (6aR,9R)—N,N-diethyl-7-(2-methoxybenzyl)-4,6,6a,7,8,9-hexahydroindolo[4,3-fg]quinoline-9-carboxamide], for which the EC50 in assay [1] (setting [6]) is greater than 31600 nM; in assay [2] it was greater than 10000 nM; in assay [3] it was 643 nM; in assay [4] (setting [7]), 983 nM; in assay [5], 3190 nM.
As to `CCN(CC)C(=O)[C@@H]1C=C2c3cccc4[nH]cc(c34)C[C@H]2N(CCc2ccccc2OC)C1` [Compound 11, (6aR,9R)—N,N-diethyl-7-(2-methoxyphenethyl)-4,6,6a,7,8,9-hexahydroindolo[4,3-fg]quinoline-9-carboxamide], the EC50 in assay [1] (setting [6]) is greater than 31600 nM; in assay [2], 74.5 nM; in assay [3], 216 nM; in assay [4] (setting [7]), 854 nM; in assay [5] it was 448 nM.
